# From US5631259A, “Cycloalkltriols containing cyclic substituents, processes and intermediate products for their preparation and their use as antiviral and antiparasitic agents” (priority 1991, dated 1997)
# Legend:
# [1] = in vitro; details: human, hela cells
# [2] = test system: Pneumocystis carinii; assay: Pneumocystis carinii pneumonia in dexamethasone-treated rats, bronchial lavage evaluated with Pneumocystis carinii test kit; assay type: in vivo, Spraque-Dawley rats; details: Monday, Wednesday and Friday for two weeks
# Description: Pneumocystis carinii--Description of the experiment and results
# Spraque-Dawley rats, 200-220 g, were collected into groups of 10 animals and treated with dexamethasone 1.5 mg/ml; of loxacin 0.2 mg/rat via the drinking water in order to induce the outbreak of pneumonia caused by Pneumocystis carinii.
# After 7 weeks, the dexamethasone treatment was stopped and the preparation treatment was started.
# Treatment was carried out every Monday, Wednesday and Friday for two weeks as follows:
# 2. pentamidine 20 mg/kg i.m.
# 3. pentamidine 40 mg/kg i.m.
# After the two treatment weeks, a bronchial lavage was performed on the animals under Nembutal anesthesia.
# The bronchial suspensions obtained were worked up and evaluated using the Pneumocystis carinii test kit from Progen Biotechnik GmbH, Heidelberg, Germany.
smiles,measurement,setting,value
"Nc1ncnc2c1ncn2[C@@H]1C[C@H](O)[C@@H](O)[C@H]1O (racemic) [Example 3.1.1, 9-[(1RS,2SR,3RS,4SR)-2,3,4-trihydroxycyclo-pent-1-yl]adenine]",MNTC,[1],> 400 µg/mL
"O=c1c(Cl)c(Cl)cnn1[C@@H]1C[C@H](O)[C@@H](O)[C@H]1O (racemic) [Example 3.10.1, 4,5-dichloro-2-[(1RS,2SR,3RS,4SR)-2,3,4-trihydroxy-cyclopent-1-yl]pyridazin-3(2H)-one]",Reduction (%),[2]; 20 mg/kg oral,22.9%
"CNc1ncnc2c1ncn2[C@H]1C[C@@H](O)[C@H](O)[C@@H]1O (relative stereo) [Example 3.3, N^6-methyl-9-[(1RS,2SR,3RS,4SR)-trihydroxy-cyclopent-1-yl]adenine]",MNTC,[1],> 400 µg/mL
N=C(N)c1ccc(OCCCCCOc2ccc(C(=N)N)cc2)cc1 [pentamidine],Reduction (%),[2]; 20 mg/kg i.m.,37.7%
same,Reduction (%),[2]; 40 mg/kg i.m.,16.9%
